The results in this text go back to ChEMBL document CHEMBL3124780, “The synthesis of 4,7-disubstituted-2H-benzo[b][1,4]-oxazin-3(4H)-ones using Smiles rearrangement and their in vitro evaluation as platelet aggregation inhibitors” (Bioorg Med Chem Lett, 2014).

The nature of this test: Antiplatelet activity in New Zealand rabbit platelet-rich plasma assessed as inhibition of ADP-induced aggregation treated for 5 mins prior to ADP-challenge measured after 1 to 6 mins by spectrophotometric analysis. The settings on record: Oryctolagus cuniculus. Format: functional, cell-free.
In general, IC50 refers to the concentration that inhibits the measured activity by half. Regarding `CCCCN1C(=O)COc2cc(CN3CCN(c4ccccc4)CC3)ccc21`, the IC50 turned out to be 15.5 µM.
Next, `CCCCN1C(=O)COc2cc(CN3CCN(c4ccccc4F)CC3)ccc21`: 17.1 µM; `O=C1COc2cc(CN3CCN(c4ccccc4F)CC3)ccc2N1Cc1ccccc1`: 15.3 µM; `CCCN1C(=O)COc2cc(CN3CCN(Cc4ccccc4)CC3)ccc21`: 9.2 µM.
Next, `CCN1C(=O)COc2cc(CN3CCOCC3)ccc21`: 10.5 µM; `CC(C)N1C(=O)COc2cc(CN3CCOCC3)ccc21`: 11 µM.
Take `CCCN1C(=O)COc2cc(CN3CCOCC3)ccc21`: the IC50 amounted to 9.63 µM.
In the case of `CCCCN1C(=O)COc2cc(CN3CCOCC3)ccc21` it was 14.4 µM; in that of `O=C1COc2cc(CN3CCOCC3)ccc2N1Cc1ccccc1`, 12.2 µM.
In the case of `CCN1C(=O)COc2cc(CN3CCN(c4ccccc4)CC3)ccc21` it was 10.1 µM; in that of `CC(C)N1C(=O)COc2cc(CN3CCN(c4ccccc4)CC3)ccc21`, 10.8 µM.
In the case of `CCCN1C(=O)COc2cc(CN3CCN(c4ccccc4)CC3)ccc21` it was 12.8 µM; in that of `O=C1COc2cc(CN3CCN(c4ccccc4)CC3)ccc2N1Cc1ccccc1`, 13.9 µM.
Consider `CCN1C(=O)COc2cc(CN3CCN(c4ccc(F)cc4)CC3)ccc21`, for which the IC50 stood at 11.1 µM.
Regarding `CC(C)N1C(=O)COc2cc(CN3CCN(c4ccc(F)cc4)CC3)ccc21`, the IC50 was 13.3 µM.
Turning to `CCCN1C(=O)COc2cc(CN3CCN(c4ccc(F)cc4)CC3)ccc21`, the IC50 was 11.4 µM.
Next, `CCCCN1C(=O)COc2cc(CN3CCN(c4ccc(F)cc4)CC3)ccc21`: 15.2 µM; `O=C1COc2cc(CN3CCN(c4ccc(F)cc4)CC3)ccc2N1Cc1ccccc1`: 19.4 µM.
Consider `CCN1C(=O)COc2cc(CN3CCN(c4ccccc4F)CC3)ccc21`, for which the IC50 worked out at 12.7 µM.
Turning to `CC(C)N1C(=O)COc2cc(CN3CCN(c4ccccc4F)CC3)ccc21`, the IC50 was determined as 13.6 µM.
Next, `CCCN1C(=O)COc2cc(CN3CCN(c4ccccc4F)CC3)ccc21`: 13.8 µM; `CC(=O)Oc1ccccc1C(=O)O` [ASPIRIN]: 7.07 µM; `Clc1ccccc1CN1CCc2sccc2C1` [TICLOPIDINE]: 3.72 µM.
